# Assay results from ChEMBL document CHEMBL1134238, “Synthesis of metabolically blocked paclitaxel analogues” (Bioorg Med Chem Lett, 2001).
# Tests used:
# [1] = molecular target: Tubulin alpha chain (Sus scrofa) (UniProt P02550); test: Compound was tested in vitro for inhibition of tubulin polymerization, expressed as ratio to that obtained for paclitaxel; format: functional; settings: Homo sapiens
# [2] = test system: HCT-116; test: Compound was tested for cytotoxicity against human colon tumor cell line (HCT116); format: functional, cell-based
# [3] = test system: M109; test: Compound was tested in vivo against M109 using Madison murine lung carcinoma (M109) tumor model at 32 mg/kg; format: functional, Mus musculus
# [4] = test system: M109; test: Compound was tested in vivo against M109 using Madison murine lung carcinoma (M109) tumor model at 40 mg/kg; format: functional, Mus musculus
# [5] = test system: M109; test: Compound was tested in vivo against M109 using Madison murine lung carcinoma (M109) tumor model at 200 mg/kg; format: functional, Mus musculus
# Chain of Tubulin alpha chain (Sus scrofa) (P02550 whole entry, looked up): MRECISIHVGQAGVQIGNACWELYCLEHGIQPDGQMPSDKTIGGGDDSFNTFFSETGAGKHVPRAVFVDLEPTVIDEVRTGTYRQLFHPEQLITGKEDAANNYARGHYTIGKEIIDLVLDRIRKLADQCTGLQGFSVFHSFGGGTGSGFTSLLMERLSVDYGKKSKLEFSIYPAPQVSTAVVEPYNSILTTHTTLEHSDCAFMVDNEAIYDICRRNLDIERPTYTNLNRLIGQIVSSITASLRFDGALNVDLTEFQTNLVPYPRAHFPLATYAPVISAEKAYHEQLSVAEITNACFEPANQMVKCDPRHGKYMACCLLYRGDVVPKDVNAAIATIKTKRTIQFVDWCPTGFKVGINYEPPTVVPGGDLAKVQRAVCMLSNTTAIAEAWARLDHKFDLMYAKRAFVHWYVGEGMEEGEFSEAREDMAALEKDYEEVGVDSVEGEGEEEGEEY
SMILES,Tubulin polymerization [1],IC50 [2] [nM],T/C [3] [%],T/C [4] [%],T/C [5] [%]
CC(=O)O[C@H]1C(=O)[C@@]2(C)C([C@H](OC(=O)c3ccccc3)[C@]3(O)C[C@H](OC(=O)[C@H](O)[C@@H](NC(=O)c4ccccc4)c4ccccc4)C(C)=C1C3(C)C)[C@]1(OC(C)=O)CO[C@@H]1[C@@H](Br)[C@@H]2O (some centres undefined),1.1,2.6,,,
CC(=O)O[C@H]1C(=O)[C@@]2(C)C([C@H](OC(=O)c3ccccc3)[C@]3(O)C[C@H](OC(=O)[C@H](O)[C@@H](NC(=O)OC(C)(C)C)c4ccccc4)C(C)=C1C3(C)C)[C@]1(OC(C)=O)CO[C@@H]1[C@@H](F)[C@@H]2O (some centres undefined),0.6,0.2,,,
CC(=O)O[C@H]1C(=O)[C@@]2(C)C([C@H](OC(=O)c3ccccc3)[C@]3(O)C[C@H](OC(=O)[C@H](O)[C@@H](NC(=O)OC(C)(C)C)c4ccccc4)C(C)=C1C3(C)C)[C@]1(OC(C)=O)CO[C@@H]1C[C@@H]2O (some centres undefined),0.7,1.8,177,,
CC(=O)O[C@H]1C(=O)[C@@]2(C)C([C@H](OC(=O)c3ccccc3)[C@]3(O)C[C@H](OC(=O)[C@H](O)[C@@H](NC(=O)c4ccccc4)c4ccccc4)C(C)=C1C3(C)C)[C@]1(OC(C)=O)CO[C@@H]1[C@@H](F)[C@@H]2O (some centres undefined),1,1.4,,,
CC(=O)O[C@H]1C(=O)[C@@]2(C)[C@H]([C@H](OC(=O)c3ccccc3)[C@]3(O)C[C@H](OC(=O)[C@H](O)[C@@H](NC(=O)c4ccccc4)c4ccccc4)C(C)=C1C3(C)C)[C@]1(OC(C)=O)CO[C@@H]1C[C@@H]2O [PACLITAXEL],1,,,215,
CC(=O)O[C@H]1C(=O)[C@@]2(C)C([C@H](OC(=O)c3ccccc3)[C@]3(O)C[C@H](OC(=O)[C@H](O)[C@@H](NC(=O)c4ccccc4)c4ccccc4)C(C)=C1C3(C)C)[C@]1(OC(C)=O)CO[C@@H]1[C@@H](Cl)[C@@H]2O (some centres undefined),0.8,1.2,,,203
